Laboratory results reported in patent US20250129430A1, “HIGH ATP-AFFINITY PROTEIN AS THERAPEUTIC TARGET FOR INTRACTABLE CANCER MOLECULAR SUBTYPES AND INHIBITOR THEREOF” (VeraVerse Co., Ltd., priority 2021, published 2025).
Structures can show the parent of a compound that is named as a salt.

How the values were obtained:
Assay in all cases: Cell viability drug screen, 12-point dose-response AUC
Format in all cases: cell-based, human
FU97 = test system: FU97; parameters: Average Area Under the Viability Curve (AUC), AUC norm value: scale not given here; conditions: FU97 cells; 72 hours
In short: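 Trapezoidal AUC of a 12-point, DMSO-normalized dose-response curve. Luminescent viability was measured after 72 h of exposure at 37° C to half-log serial dilutions (0.5% DMSO control), dosed 24 h after plating FU97 cells at 5×10^3 per well.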

SNU601 = SNU601 cells; 72 hours
In short: (§1)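 Luminescent viability readings, taken 15 min after reagent addition at room temperature, were normalized to the 0.5% DMSO control to build 12-point dose-response curves. Trapezoidal integration gave the AUC. Cells had been plated at 5×10^3 per well and then exposed to half-log dilutions for 72 h.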

MKN45 = MKN45 cells (non-SEM subtype); 72 hours
In short: as §1

AGS = AGS cells (non-SEM subtype); 72 hours
In short: as §1

YCC11 = YCC11 cells (SEM subtype); 72 hours
In short: as §1

MKN28 = MKN28 cells; 72 hours
In short: as §1

YCC2 = YCC2 cells; 72 hours
In short: as §1

YCC3 = YCC3 cells; 72 hours
In short: as §1

NCC20 = NCC20 cells; 72 hours
In short: as §1

SNU1750 = SNU1750 cells (SEM subtype); 72 hours
In short: as §1

SNU1 = SNU1 cells; 72 hours
In short: as §1

MKN1 = MKN1 cells; 72 hours
In short: as §1

NCC19 = NCC19 cells; 72 hours
In short: as §1

SNU16 = SNU16 cells; 72 hours
In short: as §1

SNU484 = SNU484 cells (SEM subtype); 72 hours
In short: as §1

Hs746T = Hs746T cells (SEM subtype); 72 hours
In short: as §1

SNU1967 = SNU1967 cells; 72 hours
In short: as §1

SNU638 = SNU638 cells; 72 hours
In short: as §1

MKN74 = MKN74 cells; 72 hours
In short: as §1

SNU620 = SNU620 cells; 72 hours
In short: as §1

NCC59 = NCC59 cells; 72 hours
In short: as §1

SK4 = SK4 cells (SEM subtype); 72 hours
In short: as §1

NCC24 = NCC24 cells; 72 hours
In short: as §1

SNU216 = SNU216 cells (non-SEM subtype); 72 hours
In short: as §1

SNU668 = SNU668 cells (SEM subtype); 72 hours
In short: as §1

KATO3 = KATO3 cells; 72 hours
In short: as §1

NCI_N87 = NCI_N87 cells; 72 hours
In short: as §1

OCUM1 = OCUM1 cells; 72 hours
In short: as §1

SNU719 = SNU719 cells; 72 hours
In short: as §1

CC(C)C[C@H](NC(=O)CNC(=O)c1cc(Cl)ccc1Cl)B1OC(=O)C(CC(=O)O)(CC(=O)O)O1 [MLN9708]
Average Area Under the Viability Curve (AUC), AUC norm value (FU97): −1.568 | Average Area Under the Viability Curve (AUC), AUC norm value (SNU601): 0 | Average Area Under the Viability Curve (AUC), AUC norm value (MKN45): 0.2581 | Average Area Under the Viability Curve (AUC), AUC norm value (AGS): −0.6988 | Average Area Under the Viability Curve (AUC), AUC norm value (YCC11): −1.824 | Average Area Under the Viability Curve (AUC), AUC norm value (MKN28): 0.1368 | Average Area Under the Viability Curve (AUC), AUC norm value (YCC2): 0.3377 | Average Area Under the Viability Curve (AUC), AUC norm value (YCC3): 2.717 | Average Area Under the Viability Curve (AUC), AUC norm value (NCC20): −1.527 | Average Area Under the Viability Curve (AUC), AUC norm value (SNU1750): −2.161 | Average Area Under the Viability Curve (AUC), AUC norm value (SNU1): 0.02493 | Average Area Under the Viability Curve (AUC), AUC norm value (MKN1): 0.06734 | Average Area Under the Viability Curve (AUC), AUC norm value (NCC19): −0.7913 | Average Area Under the Viability Curve (AUC), AUC norm value (SNU16): −2.259 | Average Area Under the Viability Curve (AUC), AUC norm value (SNU484): −1.069 | Average Area Under the Viability Curve (AUC), AUC norm value (Hs746T): −1.547 | Average Area Under the Viability Curve (AUC), AUC norm value (SNU1967): −1.556 | Average Area Under the Viability Curve (AUC), AUC norm value (SNU638): 0.0059 | Average Area Under the Viability Curve (AUC), AUC norm value (MKN74): −0.4008 | Average Area Under the Viability Curve (AUC), AUC norm value (SNU620): −0.7036 | Average Area Under the Viability Curve (AUC), AUC norm value (NCC59): −0.3472 | Average Area Under the Viability Curve (AUC), AUC norm value (SK4): 0.4078 | Average Area Under the Viability Curve (AUC), AUC norm value (NCC24): −0.9085 | Average Area Under the Viability Curve (AUC), AUC norm value (SNU216): 0.1416 | Average Area Under the Viability Curve (AUC), AUC norm value (SNU668): 1.232 | Average Area Under the Viability Curve (AUC), AUC norm value (KATO3): 0.559 | Average Area Under the Viability Curve (AUC), AUC norm value (NCI_N87): 1.9321 | Average Area Under the Viability Curve (AUC), AUC norm value (OCUM1): 2.097 | Average Area Under the Viability Curve (AUC), AUC norm value (SNU719): 1.304

CC[C@@]1(O)C(=O)OCc2c1cc1n(c2=O)Cc2cc3c(CN(C)C)c(O)ccc3nc2-1 [Topotecan HCI, Topotecan HCl]
Average Area Under the Viability Curve (AUC), AUC norm value (FU97): −0.8445 | Average Area Under the Viability Curve (AUC), AUC norm value (SNU601): −0.5589 | Average Area Under the Viability Curve (AUC), AUC norm value (MKN45): 1.195 | Average Area Under the Viability Curve (AUC), AUC norm value (AGS): −2.159 | Average Area Under the Viability Curve (AUC), AUC norm value (YCC11): −0.573 | Average Area Under the Viability Curve (AUC), AUC norm value (MKN28): 1.259 | Average Area Under the Viability Curve (AUC), AUC norm value (YCC2): 0.1906 | Average Area Under the Viability Curve (AUC), AUC norm value (YCC3): 1.923 | Average Area Under the Viability Curve (AUC), AUC norm value (NCC20): −2.367 | Average Area Under the Viability Curve (AUC), AUC norm value (SNU1750): 0.2818 | Average Area Under the Viability Curve (AUC), AUC norm value (SNU1): −0.6163 | Average Area Under the Viability Curve (AUC), AUC norm value (MKN1): −0.9954 | Average Area Under the Viability Curve (AUC), AUC norm value (NCC19): 2.896 | Average Area Under the Viability Curve (AUC), AUC norm value (SNU16): −0.5292 | Average Area Under the Viability Curve (AUC), AUC norm value (SNU484): 1.128 | Average Area Under the Viability Curve (AUC), AUC norm value (Hs746T): 0.4587 | Average Area Under the Viability Curve (AUC), AUC norm value (SNU1967): −2.648 | Average Area Under the Viability Curve (AUC), AUC norm value (SNU638): −0.7133 | Average Area Under the Viability Curve (AUC), AUC norm value (MKN74): 0 | Average Area Under the Viability Curve (AUC), AUC norm value (SNU620): −0.7611 | Average Area Under the Viability Curve (AUC), AUC norm value (NCC59): 1.957 | Average Area Under the Viability Curve (AUC), AUC norm value (SK4): −0.4515 | Average Area Under the Viability Curve (AUC), AUC norm value (NCC24): 0.0033 | Average Area Under the Viability Curve (AUC), AUC norm value (SNU216): 1.123 | Average Area Under the Viability Curve (AUC), AUC norm value (SNU668): −1.128 | Average Area Under the Viability Curve (AUC), AUC norm value (KATO3): 5.01 | Average Area Under the Viability Curve (AUC), AUC norm value (NCI_N87): 2.857 | Average Area Under the Viability Curve (AUC), AUC norm value (OCUM1): −1.681 | Average Area Under the Viability Curve (AUC), AUC norm value (SNU719): 3.069

CC(C)n1nc(-c2ccc3oc(N)nc3c2)c2c(N)ncnc21 [INK 128 (MLN0128), INK 128]
Average Area Under the Viability Curve (AUC), AUC norm value (FU97): −2.857 | Average Area Under the Viability Curve (AUC), AUC norm value (SNU601): 1.346 | Average Area Under the Viability Curve (AUC), AUC norm value (MKN45): −0.5935 | Average Area Under the Viability Curve (AUC), AUC norm value (AGS): −1.244 | Average Area Under the Viability Curve (AUC), AUC norm value (YCC11): −2.648 | Average Area Under the Viability Curve (AUC), AUC norm value (MKN28): 1.195 | Average Area Under the Viability Curve (AUC), AUC norm value (YCC2): 0 | Average Area Under the Viability Curve (AUC), AUC norm value (YCC3): 0.8535 | Average Area Under the Viability Curve (AUC), AUC norm value (NCC20): −2.568 | Average Area Under the Viability Curve (AUC), AUC norm value (SNU1750): −1.079 | Average Area Under the Viability Curve (AUC), AUC norm value (SNU1): 1.281 | Average Area Under the Viability Curve (AUC), AUC norm value (MKN1): −0.7444 | Average Area Under the Viability Curve (AUC), AUC norm value (NCC19): 0.3022 | Average Area Under the Viability Curve (AUC), AUC norm value (SNU16): −0.8733 | Average Area Under the Viability Curve (AUC), AUC norm value (SNU484): −1.089 | Average Area Under the Viability Curve (AUC), AUC norm value (Hs746T): −1.821 | Average Area Under the Viability Curve (AUC), AUC norm value (SNU1967): −0.4728 | Average Area Under the Viability Curve (AUC), AUC norm value (SNU638): 0.2387 | Average Area Under the Viability Curve (AUC), AUC norm value (MKN74): −0.4883 | Average Area Under the Viability Curve (AUC), AUC norm value (SNU620): 0.08832 | Average Area Under the Viability Curve (AUC), AUC norm value (NCC59): 1.541 | Average Area Under the Viability Curve (AUC), AUC norm value (SK4): −2.931 | Average Area Under the Viability Curve (AUC), AUC norm value (NCC24): 0.7502 | Average Area Under the Viability Curve (AUC), AUC norm value (SNU216): −0.9082 | Average Area Under the Viability Curve (AUC), AUC norm value (SNU668): 1.085 | Average Area Under the Viability Curve (AUC), AUC norm value (KATO3): 1.633 | Average Area Under the Viability Curve (AUC), AUC norm value (NCI_N87): 0.7081 | Average Area Under the Viability Curve (AUC), AUC norm value (OCUM1): 0.03105 | Average Area Under the Viability Curve (AUC), AUC norm value (SNU719): 3.8255

CCCCC(CC)CNC(=N)NC(=N)NCCCCCCNC(=N)NC(=N)NCC(CC)CCCC (centres unmarked) [Alexidine HCl]
Average Area Under the Viability Curve (AUC), AUC norm value (FU97): −0.9535 | Average Area Under the Viability Curve (AUC), AUC norm value (SNU601): 1.898 | Average Area Under the Viability Curve (AUC), AUC norm value (MKN45): 0.04553 | Average Area Under the Viability Curve (AUC), AUC norm value (AGS): −0.444 | Average Area Under the Viability Curve (AUC), AUC norm value (YCC11): −1.347 | Average Area Under the Viability Curve (AUC), AUC norm value (MKN28): 0 | Average Area Under the Viability Curve (AUC), AUC norm value (YCC2): −0.00823 | Average Area Under the Viability Curve (AUC), AUC norm value (YCC3): 0.8273 | Average Area Under the Viability Curve (AUC), AUC norm value (NCC20): 0.6963 | Average Area Under the Viability Curve (AUC), AUC norm value (SNU1750): −0.6331 | Average Area Under the Viability Curve (AUC), AUC norm value (SNU1): 0.7061 | Average Area Under the Viability Curve (AUC), AUC norm value (MKN1): 0.8687 | Average Area Under the Viability Curve (AUC), AUC norm value (NCC19): 1.132 | Average Area Under the Viability Curve (AUC), AUC norm value (SNU16): −1.849 | Average Area Under the Viability Curve (AUC), AUC norm value (SNU484): −1.212 | Average Area Under the Viability Curve (AUC), AUC norm value (Hs746T): −0.2597 | Average Area Under the Viability Curve (AUC), AUC norm value (SNU1967): 0.1828 | Average Area Under the Viability Curve (AUC), AUC norm value (SNU638): −0.612 | Average Area Under the Viability Curve (AUC), AUC norm value (MKN74): −0.3433 | Average Area Under the Viability Curve (AUC), AUC norm value (SNU620): 0.0423 | Average Area Under the Viability Curve (AUC), AUC norm value (NCC59): 1.334 | Average Area Under the Viability Curve (AUC), AUC norm value (SK4): −0.9023 | Average Area Under the Viability Curve (AUC), AUC norm value (NCC24): −0.4745 | Average Area Under the Viability Curve (AUC), AUC norm value (SNU216): 0.03777 | Average Area Under the Viability Curve (AUC), AUC norm value (SNU668): −0.1375 | Average Area Under the Viability Curve (AUC), AUC norm value (KATO3): 0.541 | Average Area Under the Viability Curve (AUC), AUC norm value (NCI_N87): 2.531 | Average Area Under the Viability Curve (AUC), AUC norm value (OCUM1): −0.04134 | Average Area Under the Viability Curve (AUC), AUC norm value (SNU719): 1.2
